# Test results from publication PMC11694536 (Alzheimer's & Dementia : Translational Research & Clinical …, 2024).
# What was measured:
# [1] = Phase 1 clinical safety and tolerability; assay type: in vivo, human
# [2] = Plasma protein binding, mice; assay type: in vitro ADME; conditions: mouse
# Solubility = assay type: physicochemical; conditions: phosphate buffer, pH 7.5, aqueous buffer
# Predicted human PK = conditions: allometry from rat, dog, monkey PK
# [3] = target: human ether‐à‐go‐go (hERG) channel (Homo sapiens, UniProt Q12809); assay: hERG channel inhibition; assay type: biochemical
# Sequence of human ether‐à‐go‐go (hERG) channel (Q12809 whole entry): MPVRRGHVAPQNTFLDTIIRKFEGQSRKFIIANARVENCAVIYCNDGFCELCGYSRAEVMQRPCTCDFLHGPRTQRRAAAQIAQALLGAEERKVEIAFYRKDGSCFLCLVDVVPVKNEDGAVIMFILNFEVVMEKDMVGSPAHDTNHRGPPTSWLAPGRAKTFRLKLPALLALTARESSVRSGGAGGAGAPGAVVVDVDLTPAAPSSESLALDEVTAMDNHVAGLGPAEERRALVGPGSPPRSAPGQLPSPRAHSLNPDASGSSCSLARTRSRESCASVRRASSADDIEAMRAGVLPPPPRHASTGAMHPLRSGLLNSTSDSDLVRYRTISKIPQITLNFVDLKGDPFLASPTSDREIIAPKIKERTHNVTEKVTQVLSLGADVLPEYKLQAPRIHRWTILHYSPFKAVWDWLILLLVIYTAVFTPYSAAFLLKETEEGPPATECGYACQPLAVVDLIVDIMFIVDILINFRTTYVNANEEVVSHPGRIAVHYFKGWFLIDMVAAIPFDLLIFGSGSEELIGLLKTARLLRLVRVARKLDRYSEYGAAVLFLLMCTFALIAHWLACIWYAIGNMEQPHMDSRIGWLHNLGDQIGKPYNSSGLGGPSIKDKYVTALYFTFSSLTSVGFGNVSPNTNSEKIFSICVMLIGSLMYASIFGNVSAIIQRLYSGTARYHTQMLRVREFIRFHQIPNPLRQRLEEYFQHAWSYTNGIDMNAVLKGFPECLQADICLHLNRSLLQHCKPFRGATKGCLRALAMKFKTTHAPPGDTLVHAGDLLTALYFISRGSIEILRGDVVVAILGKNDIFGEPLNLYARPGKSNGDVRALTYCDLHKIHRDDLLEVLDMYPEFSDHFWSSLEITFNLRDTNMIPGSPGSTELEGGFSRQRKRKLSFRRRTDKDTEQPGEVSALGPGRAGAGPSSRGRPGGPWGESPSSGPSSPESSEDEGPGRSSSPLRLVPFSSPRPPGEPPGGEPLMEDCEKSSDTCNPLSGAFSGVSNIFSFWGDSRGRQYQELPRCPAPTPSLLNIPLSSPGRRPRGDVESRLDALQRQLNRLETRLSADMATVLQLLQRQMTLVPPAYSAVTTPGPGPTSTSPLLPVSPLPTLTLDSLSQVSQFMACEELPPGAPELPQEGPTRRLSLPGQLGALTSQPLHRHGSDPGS
# [4] = tested on: protein O‐GlcNAc modification in human embryonic kidney cells; assay: Cellular protein O-GlcNAc increase; assay type: cell-based; conditions: read-out: Protein O‐GlcNAc (cellular) Relative EC50
# [5] = Phase 2 study PROSPECT-ALZ in early symptomatic AD; assay type: in vivo, human; conditions: Prospect‐ALZ Phase 2 study; full results to be published separately
# [6] = MDCK passive permeability; assay type: in vitro ADME, canine; conditions: dog
# [7] = Clinical pharmacokinetics in Phase 1 studies; assay type: in vivo, human
# [8] = SAD study, single oral doses 0.15 to 16 mg
structure (smiles),measurement,setting,value
CC(=O)Nc1nc(F)c(CN2CC[C@H](OCc3noc(C)n3)C[C@@H]2C)s1 [ceperognastat],participants reporting at least one TEAE,"[1]; MD‐PET study, 1 mg QD 14 days",Four out of four
same,participants reporting TEAEs,"[1]; SAD study, 13 of 23 ceperognastat-treated participants",56.5%
same,participants reporting at least one TEAE,"[1]; SD‐PET study, 8 of 16 participants, single oral dose",50%
same,serious adverse events (SAEs),[1]; all Phase 1 clinical studies,no serious adverse events
same,fraction unbound,[2],0.684
same,solubility,Solubility,1360 µg/mL
same,predicted human apparent clearance (CL/F),Predicted human PK,12 L/h
same,predicted human apparent volume of distribution (V/F),Predicted human PK,48 L
same,IC50,[3],81 µM
same,EC50,[4],0.0219 ± 0.0073 µM
same,clinical benefit in early AD,[5],did not show evidence of clinical benefit
same,Papp,[6],50.1 ×10⁻⁶ cm/s
same,accumulation with QD dosing,"[7]; MAD study, 1, 3, 7 mg QD for 14 days, day 1 vs day 14",minimal accumulation
same,CL/F,[7]; [8],12 L/h
same,V/F,[7]; [8],112 L
